How the values were obtained:
Rho-A = Rho-A (Homo sapiens (Human), UniProt P61586); assay: Rho inhibition assay (labeled GTP); type: binding; conditions: read-out: Rho-A % Inh.
Rac-1 = Rac-1 (Homo sapiens (Human), UniProt P63000); assay: Rac inhibition assay (labeled GTP); type: binding; conditions: read-out: Rac-1 % Inh.
[1] = biological target: KRas G12D/Q61H double mutant (Homo sapiens (Human), UniProt P01116, G12D/Q61H); assay: Ras GTP binding domain inhibition assay (labeled GTP); conditions: at 20 μM; read-out: KRas G12D Q61H % Inh.
Chain of KRas G12D/Q61H double mutant (P01116-2 other isoform, or with tags, fused parts or gaps G12D/Q61H): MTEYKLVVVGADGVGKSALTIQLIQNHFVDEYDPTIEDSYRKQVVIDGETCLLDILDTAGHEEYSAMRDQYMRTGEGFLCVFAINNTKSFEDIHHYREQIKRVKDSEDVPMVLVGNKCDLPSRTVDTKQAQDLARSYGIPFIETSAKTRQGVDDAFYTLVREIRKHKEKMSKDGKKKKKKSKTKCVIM
How it was run: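 Ni-plate capture of His-KRas (3-10 μg/ml, o/n, 4° C); Tris pH 7.5/MgCl2/DTT buffer, 1% DMSO. Cpd 20 μM or titration, 3 h RT. Cy3/Cy5-GTP 45 min RT, wash, fluorescence of bound GTP.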

KRas G12D mutant protein = KRas G12D mutant protein (Homo sapiens (Human), UniProt P01116, G12D); assay: as above; conditions: at 20 μM; read-out: KRas G12D % Inh.
Chain of KRas G12D mutant protein (P01116-2 other isoform, or with tags, fused parts or gaps G12D): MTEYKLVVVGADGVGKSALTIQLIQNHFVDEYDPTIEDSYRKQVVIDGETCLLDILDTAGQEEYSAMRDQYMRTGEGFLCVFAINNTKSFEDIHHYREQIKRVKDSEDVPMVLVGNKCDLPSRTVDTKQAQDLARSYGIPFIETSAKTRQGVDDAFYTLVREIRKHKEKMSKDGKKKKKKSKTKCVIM
Procedure: The following method was developed as specific assay for KRas G12D mutant protein.
Buffer-I: • 50 mM Tris, pH 7.5 • 150 mM NaCl (optional) • 1 mM MgCl2 • 1 mM DTT. • KRas G12D mutant protein was expressed as a His-tagged protein. Purified His-KRas G12D protein was diluted in buffer-I to a final concentration of 3-10 μg/ml. • 200 μl of the diluted His-KRas G12D protein was added to a nickel coated 96 well plate and incubated overnight at 4° C. • The next day, wells were washed 3× in 200 μl of Buffer-I. • Then 200 μl of Buffer-I were added to each well in the presence of 1% DMSO. • Tested compounds were added to the protein-coated wells at a concentration of 20 μM, and incubated for 3 hours at room temperature. While performing IC50 measurements a serial dilution of all tested concentrations was prepared.
Then 22 μl of Cy3-GTP or Cy5-GTP was added to each well. The labeled GTP was incubated for 45 min. at room temperature. • Following GTP incubation, wells were washed 3× in Buffer-I, and 200 μl of Buffer-I were added to each well. • Following washes, the amount of bound labeled-GTP was measured with an Eppendorf AF2200 plate reader.

Chain of Rho-A (P61586 whole entry): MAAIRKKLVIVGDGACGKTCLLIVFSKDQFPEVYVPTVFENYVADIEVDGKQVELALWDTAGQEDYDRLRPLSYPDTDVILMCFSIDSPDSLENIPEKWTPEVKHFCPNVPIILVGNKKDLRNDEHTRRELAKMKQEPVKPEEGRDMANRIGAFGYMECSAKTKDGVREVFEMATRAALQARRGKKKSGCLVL

Row | Structure (SMILES) | inhibition at 20 µM (Rho-A) [%] | inhibition at 20 µM (Rac-1) [%] | inhibition at 20 µM [1] [%] | inhibition at 20 µM (KRas G12D mutant protein) [%]
1 | Cc1sc2nc(-c3ccccn3)nc(N)c2c1Br [drawing 3803] | 51 to 75 | 25 to 50 | 25 to 50 | 
2 | Oc1nc(-c2ccccn2)nc2c(CC3CCCNC3)csc12 (stereo not drawn) [drawing 3807] | 76 to 100 | 51 to 75 | 25 to 50 | 
3 | COc1nc(-c2ccccn2)nc2c(C3CC3)csc12 [drawing 3808] | 0 | 0 | 1 to 25 | 
4 | COc1cnc(C2(N)CCCC2)nc1O [drawing 3809] | 1 to 25 | 1 to 25 | 1 to 25 | 
5 | COc1cnc(C(C)(C)N)nc1O [drawing 3810] | 0 | 1 to 25 | 1 to 25 | 
6 | COC(=O)c1c(C)sc2c(N)nc(-c3ccccn3)nc12 [drawing 3818] | 76 to 100 | 76 to 100 | 51 to 75 | 
7 | O=C(NCCc1ccncn1)c1csc2nc(-c3ccccn3)nc(N3CCOCC3)c12 [drawing 3819] | 51 to 75 | 51 to 75 | 25 to 50 | 
8 | CC(C)c1nn(C)cc1-c1csc2c(O)nc(-c3ccccn3)nc12 [drawing 3820] | 51 to 75 | 51 to 75 | 51 to 75 | 
9 | N#Cc1cccc(-c2csc3c(O)nc(-c4ccccn4)nc23)c1 [drawing 3822] | 1 to 25 | 1 to 25 | 1 to 25 | 
10 | Oc1nc(-c2ccccn2)nc2c(-c3cncnc3)csc12 [drawing 3823] | 1 to 25 | 1 to 25 | 1 to 25 | 
11 | Cc1c(-c2csc3c(O)nc(-c4ccccn4)nc23)cnn1C [drawing 3824] | 76 to 100 | 76 to 100 | 51 to 75 | 
12 | Oc1nc(-c2ccccn2)nc2c(-c3cncc(C(F)F)c3)csc12 [drawing 3826] | 0 | 1 to 25 | 1 to 25 | 
13 | Cc1sc2c(O)nc(-c3ccccn3)nc2c1C(=O)N1CCN(c2ccccc2)CC1 [drawing 3827] | 76 to 100 | 76 to 100 | 25 to 50 | 
14 | Oc1nc(-c2ccccn2)nc2c(C3CCCCC3)csc12 [drawing 3830] | 51 to 75 | 25 to 50 | 25 to 50 | 
15 | COc1cnc(CNC(=O)c2csc3nc(-c4ccccn4)nc(N)c23)[nH]c1=O [drawing 3835] | 51 to 75 | 25 to 50 | 25 to 50 | 
16 | Oc1nc(-c2ccccn2)nc2c(CC3CNC3)csc12 [drawing 3837] | 76 to 100 | 76 to 100 | 25 to 50 | 
17 | COc1cnc(CNC(=O)c2csc3c(O)nc(-c4ccccn4)nc23)[nH]c1=O [drawing 3838] | 1 to 25 | 1 to 25 | 1 to 25 | 
18 | COc1cnc(CNC(=O)c2cc3nc(-c4ccccn4)nc(O)c3s2)[nH]c1=O [drawing 3839] | 51 to 75 | 51 to 75 | 25 to 50 | 
19 | Cc1sc2c(O)nc(-c3ccccn3)nc2c1Br [drawing 3840] | 51 to 75 | 25 to 50 | 25 to 50 | 
20 | COc1cnc(CNC(=O)c2sc3c(O)nc(-c4ccccn4)nc3c2C)[nH]c1=O [drawing 3842] | 1 to 25 | 0 | 1 to 25 | 
21 | Cn1cnc(-c2nc(O)c3c(-c4ccccc4)c(-c4ccncc4)sc3n2)c1 [drawing 3846] | 0 | 0 | 1 to 25 | 
22 | COCCNc1nc(-c2ccccn2)nc(-c2cccc(OCCN(C)C)c2)c1Oc1ccccc1 [drawing 3847] | 1 to 25 | 1 to 25 | 1 to 25 | 
23 | OCC1(c2ccc(-c3nc(-c4ccccn4)nc(-c4ccc(C5(CO)CC5)cc4)c3Oc3ccccc3)cc2)CC1 [drawing 3850] | 25 to 50 | 25 to 50 | 1 to 25 | 
24 | Cn1ccnc1-c1nc(O)c2c(-c3ccccc3)c(-c3ccccc3)sc2n1 [drawing 3854] | 1 to 25 | 1 to 25 | 1 to 25 | 

Row | Structure (SMILES) | inhibition at 20 µM (Rho-A) [%] | inhibition at 20 µM (Rac-1) [%] | inhibition at 20 µM [1] [%] | inhibition at 20 µM (KRas G12D mutant protein) [%]
25 | Cn1cnc(-c2nc(O)c3c(-c4ccccc4)c(-c4ccc(CNC(=O)OC(C)(C)C)cc4)sc3n2)c1 [drawing 3855] | 25 to 50 | 25 to 50 | 1 to 25 | 
26 | Nc1nc(O)c2sc(-c3cccc(C(=O)NC4CCNC4=O)c3)cc2n1 (stereo not drawn) [drawing 3860] | 1 to 25 | 1 to 25 | 1 to 25 | 
27 | Nc1nc(O)c2sc(-c3cccc(C(=O)N4CCC(O)C4)c3)cc2n1 (stereo not drawn) [drawing 3861] | 1 to 25 | 1 to 25 | 1 to 25 | 
28 | NC(=O)C1CCCN1C(=O)c1cccc(-c2cc3nc(N)nc(O)c3s2)c1 (stereo not drawn) [drawing 3862] | 0 | 0 | 0 | 
29 | Nc1nc(O)c2sc(-c3cccc(C(=O)NCc4ncc[nH]4)c3)cc2n1 [drawing 3863] | 0 | 0 | 0 | 
30 | Nc1nc(O)c2sc(-c3cccc(C(=O)NCc4cccc(O)n4)c3)cc2n1 [drawing 3864] | 0 | 1 to 25 | 0 | 
31 | COC(=O)c1nc(-c2ccccn2)nc(O)c1O [drawing 3865] | 76 to 100 | 76 to 100 | 51 to 75 | 
32 | Oc1nc(-c2ccccn2)nc2c(-c3ccccc3)c(-c3ccncc3)sc12 [drawing 3866] | 51 to 75 | 76 to 100 | 0 | 
33 | Cn1cnc(-c2nc(O)c3sc(-c4ccncc4)c(-c4ccccc4)c3n2)c1 [drawing 3867] | 25 to 50 | 1 to 25 | 0 | 
34 | COCC(C)Nc1nc(-c2ccccn2)nc(C(=O)NCCCc2c[nH]cn2)c1Oc1ccccc1 (stereo not drawn) [drawing 3868] | 25 to 50 | 25 to 50 | 1 to 25 | 
35 | Nc1nc(-c2ccccn2)nc(C(=O)NCCc2ccncc2)c1Oc1ccccc1 [drawing 3869] | 25 to 50 | 51 to 75 | 25 to 50 | 
36 | COc1nc(-c2ccccn2)nc(Oc2cccc(C(F)(F)F)c2)c1OC [drawing 3870] | 0 | 1 to 25 | 1 to 25 | 
37 | Oc1nc(-c2ccccn2)nc2c(Br)c(-c3ccccc3)sc12 [drawing 3871] | 1 to 25 | 25 to 50 | 0 | 
38 | CC(C)(C)c1sc2c(O)nc(-c3ccccn3)nc2c1Br [drawing 3872] | 25 to 50 | 25 to 50 | 25 to 50 | 
39 | Cc1ccc(-c2cc3nc(-c4ccccn4)nc(O)c3s2)cc1 [drawing 3873] | 0 | 1 to 25 | 0 | 
40 | Oc1nc(-c2ccccn2)nc2cc(-c3ccccc3Cl)sc12 [drawing 3874] | 51 to 75 | 51 to 75 | 1 to 25 | 
41 | Oc1nc(-c2ccccn2)nc2cc(-c3ccc(-c4ccccc4)cc3)sc12 [drawing 3877] | 1 to 25 | 0 | 1 to 25 | 
42 | Cc1ccc(-c2csc3c(O)nc(-c4ccccn4)nc23)cc1 [drawing 3878] | 25 to 50 | 0 | 1 to 25 | 
43 | COc1ccc(-c2cc3nc(-c4ccccn4)nc(O)c3s2)cc1 [drawing 3881] | 1 to 25 | 0 | 1 to 25 | 
44 | Oc1nc(-c2ccccn2)nc2cc(-c3cccc(Br)c3)sc12 [drawing 3882] | 25 to 50 | 1 to 25 | 25 to 50 | 
45 | COc1nc(-c2ccccn2)nc(Oc2cccc(C(F)(F)F)c2)c1O [drawing 3883] | 1 to 25 | 76 to 100 |  | 51 to 75
46 | COCCN(C)c1nc(-c2nccn2C)nc2sc(-c3ccccc3)c(-c3ccccc3)c12 [drawing 3884] | 25 to 50 | 25 to 50 |  | 51 to 75
47 | CC(C)OCCNc1nc(-c2nccn2C)nc2sc(-c3ccccc3)c(-c3ccccc3)c12 [drawing 3885] | 25 to 50 | 25 to 50 |  | 51 to 75
48 | Cn1ccnc1-c1nc(NCCOC(F)(F)F)c2c(-c3ccccc3)c(-c3ccccc3)sc2n1 [drawing 3886] | 25 to 50 | 25 to 50 |  | 25 to 50
